Data taken from patent US20250268429A1, “Fluid Dispenser With Automatic Fluid Composition Adjustment” (OP-HYGIENE IP GmbH, priority 2024, published 2025).

Test system: Bacillus subtilis spores
Assay: in vitro killing of Bacillus subtilis spores by foam compositions (LOG reduction factor, CFU count)
Type: cell-based
Settings: conclusion from Table 3
Procedure: The compositions of Foams 1 to 6 are the same as in Table 1. Foam 7 contained 70% isopropanol.
In the in vitro experiments summarized above, the following method was used: the bacterial culture was serially diluted (1 LOG); the tested foam was added to 50 μL of the diluted solution and stirred for 15 seconds; the resulting mixture was transferred to an agar plate and incubated for 24 hours before counting the bacterial colonies (CFUs). The LOG reduction factor was calculated as the LOG bacteria before treatment minus the LOG bacteria after treatment.

CC(C)O [Isopropanol, isopropanol]
effectiveness at killing Bacillus subtilis spores (in words): not effective
